Experimental data published in ChEMBL document CHEMBL1201862, “PubChem BioAssay data set” (2004).
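Compound exposure: 48 hours, 5 concentrations, 96-well plates. GI50 is the concentration that inhibits growth by half.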 Activity calls are given as the source filed them. Cut-off read from the data, not from the text of the source: active = GI50 up to about 1.1 µM and inactive = higher.

Tests used:
Assay in all cases: NCI anticancer screen, dose series, 48 h
DU-145 = test system: DU-145
HCT-15 = test system: HCT-15
SNB-19 = test system: SNB-19
786-0 = test system: 786-0
OVCAR-8 = test system: OVCAR-8
OVCAR-5 = test system: OVCAR-5
U-251 = test system: U-251
MDA-N = test system: MDA-N
SN12C = test system: SN12C
HOP-62 = test system: HOP-62
HOP-92 = test system: HOP-92
SR = test system: SR
ACHN = test system: ACHN
TK-10 = test system: TK-10
SK-MEL-5 = test system: SK-MEL-5
SF-295 = test system: SF-295
SNB-75 = test system: SNB-75
K562 = test system: K562
NCI-H23 = test system: NCI-H23
NCI-H522 = test system: NCI-H522

| Compound | GI50 (DU-145) | GI50 (HCT-15) [µM] | GI50 (SNB-19) | GI50 (786-0) | GI50 (OVCAR-8) | GI50 (OVCAR-5) | GI50 (U-251) | GI50 (MDA-N) | GI50 (SN12C) | GI50 (HOP-62) | GI50 (HOP-92) | GI50 (SR) | GI50 (ACHN) | GI50 (TK-10) | GI50 (SK-MEL-5) | GI50 (SF-295) | GI50 (SNB-75) | GI50 (K562) | GI50 (NCI-H23) | GI50 (NCI-H522) |
| --- | --- | --- | --- | --- | --- | --- | --- | --- | --- | --- | --- | --- | --- | --- | --- | --- | --- | --- | --- | --- |
| N#Cc1ccc(/N=N/N2CCCC2)cc1 | 20.8 µM (inactive) | > 100 | > 100 µM (inactive) | > 100 µM (inactive) | > 100 µM (inactive) | > 100 µM (inactive) | > 100 µM (inactive) | > 100 µM (inactive) | > 100 µM (inactive) | > 100 µM (inactive) | > 100 µM (inactive) | 15.2 µM (inactive) | > 100 µM (inactive) | 95.9 µM (inactive) | 86.3 µM (inactive) | > 100 µM (inactive) | > 100 µM (inactive) | 91 µM (inactive) | 95.1 µM (inactive) | > 100 µM (inactive) |
| O=C1CCC(C(=O)O)C2=C1CCCC2 (stereo not given) | > 100 µM (inactive) | > 100 | > 36.2 µM (inactive) | > 28.6 µM (inactive) | > 100 µM (inactive) | > 21.5 µM (inactive) | > 15.7 µM (inactive) | > 100 µM (inactive) | > 100 µM (inactive) | > 16.4 µM (inactive) | > 100 µM (inactive) | > 100 µM (inactive) | > 100 µM (inactive) | > 100 µM (inactive) | > 56.1 µM (inactive) | > 36.1 µM (inactive) | > 100 µM (inactive) | > 100 µM (inactive) | > 15.5 µM (inactive) | > 100 µM (inactive) |
| C#CC(O)/C=C/C(O)CCCC(O)CC#CC(O)C#CCCCCC(O)/C=C/CCCC(O)/C=C/CCCCCCCCCCCCCC(O)C(O)C#CC(=O)O (stereo not given) | > 25 µM (inactive) | > 25 | > 25 µM (inactive) | > 25 µM (inactive) | > 25 µM (inactive) | > 25 µM (inactive) | > 25 µM (inactive) | > 25 µM (inactive) | > 25 µM (inactive) | > 25 µM (inactive) | > 25 µM (inactive) | > 25 µM (inactive) | > 25 µM (inactive) | > 25 µM (inactive) | > 25 µM (inactive) | > 25 µM (inactive) | 20 µM (inactive) | > 25 µM (inactive) | > 25 µM (inactive) | 12.8 µM (inactive) |
